# Assay results published in patent US10294202B2, “Pyrrolidinones as herbicides” (FMC Corporation, priority 2013, dated 2019).
# Like-named read-outs stand apart in the source and are kept apart here.
# Tests used:
# waterhemp = experiment: Test C pre-/postemergence herbicide test; assay type: in vivo, Amaranthus rudis
# Method in brief: (§1)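 Plants grown and held in a greenhouse for 13 to 15 days post-spray, then rated 0–100 by visual comparison with controls. Pre treatments targeted seeds in loam and sand; post treatments targeted 1- to 4-leaf plants in peat-based potting medium.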
# barnyardgrass [1] = experiment: Test A pre-/postemergence herbicide test; assay type: in vivo, Echinochloa crus-galli
# Method in brief: (§2)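 Approximately 10 days after treatment in the greenhouse, plants were compared with untreated controls and given a 0–100 visual injury rating. Applications: preemergence directed soil spray; postemergence on 2–10 cm plants at the one- to two-leaf stage.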
# barnyardgrass [2] = experiment: Test C pre-/postemergence herbicide test; assay type: in vivo, Echinochloa crus-galli; conditions: for Barnyardgrass plant response rating: scale 0 to 100, 0 is no effect and 100 is complete control
# Method in brief: as §1
# pigweed = experiment: Test A pre-/postemergence herbicide test; assay type: in vivo, Amaranthus retroflexus
# Method in brief: as §2
# ryegrass, Italian = experiment: Test C pre-/postemergence herbicide test; assay type: in vivo, Lolium multiflorum
# Method in brief: as §1
# oat, wild = experiment: Test C pre-/postemergence herbicide test; assay type: in vivo, Avena fatua; conditions: Postemergence
# Method in brief: as §1
# nutsedge, yellow = experiment: Test C pre-/postemergence herbicide test; assay type: in vivo, Cyperus esculentus
# Method in brief: as §1
# soybean = experiment: Test C pre-/postemergence herbicide test; assay type: in vivo, Glycine max; conditions: for Soybean plant response rating: scale 0 to 100, 0 is no effect and 100 is complete control
# Method in brief: as §1
# morningglory = experiment: Test C pre-/postemergence herbicide test; assay type: in vivo, Ipomoea coccinea
# Method in brief: as §1
# [3] = Postemergence, 31 g ai/ha, scale 0 (no effect) to 100 (complete control)
# [4] = Postemergence, 62 g ai/ha, scale 0 to 100 (0 no effect, 100 complete control)
# [5] = Postemergence, 125 g ai/ha, scale 0 to 100 (0 no effect, 100 complete control)
# [6] = Postemergence, 250 g ai/ha, scale 0 to 100 (0 no effect, 100 complete control)
# [7] = Preemergence, 31 g ai/ha, scale 0 to 100, 0 is no effect and 100 is complete control
# [8] = Preemergence, 62 g ai/ha, scale 0 to 100
# [9] = Preemergence, 125 g ai/ha, scale 0 to 100 (0 no effect, 100 complete control)
# [10] = Postemergence, 125 g ai/ha, 0 to 100 scale, 0 no effect, 100 complete control
# [11] = Postemergence, 500 g ai/ha, 0 to 100 scale (0 no effect, 100 complete control)
# [12] = Preemergence, 125 g ai/ha, visual rating on 0 to 100 scale (0 no effect, 100 complete control)
# [13] = 125 g ai/ha, scale 0 to 100 (0 no effect, 100 complete control)
# [14] = 250 g ai/ha, scale 0 to 100 (0 no effect, 100 complete control)
# [15] = Postemergence, 31 g ai/ha, scale 0 to 100 (0 no effect, 100 complete control)
# [16] = Postemergence, 62 g ai/ha, scale 0 (no effect) to 100 (complete control)
# [17] = Preemergence, 62 g ai/ha, scale 0 to 100 (0 no effect, 100 complete control)
structure (smiles),measurement,setting,value
O=C1NCC(c2ccc(F)c(F)c2)C1C(=O)Nc1cccc(F)c1F (racemic) [Compound 101],"Plant response rating, Waterhemp",waterhemp; [3],0
same,"Plant response rating, Waterhemp",waterhemp; [4],5
same,"Plant response rating, Waterhemp",waterhemp; [5],20
same,"Plant response rating, Waterhemp",waterhemp; [6],35
same,Waterhemp plant response rating,waterhemp; [7],50
same,"Plant response rating, Waterhemp",waterhemp; [8],70
same,"Plant response rating, Waterhemp",waterhemp; [9],50
same,"Plant response rating (scale of 0 to 100), Waterhemp","waterhemp; Preemergence, 250 g ai/ha",85
same,"Plant response rating, Barnyardgrass",barnyardgrass [1]; [10],80
same,"Plant response rating, Barnyardgrass",barnyardgrass [1]; [11],90
same,Barnyardgrass plant response rating,barnyardgrass [1]; [12],90
same,"Plant response rating, Barnyardgrass","barnyardgrass [1]; preemergence, 500 g ai/ha, 0 to 100 scale (0 no effect, 100 complete control)",90
same,"Plant response rating, Barnyardgrass",barnyardgrass [2]; [3],0
same,"Plant response rating, Barnyardgrass",barnyardgrass [2]; [4],35
same,"Plant response rating, Barnyardgrass",barnyardgrass [2]; [5],65
same,"Plant response rating, Barnyardgrass",barnyardgrass [2]; [6],90
same,Barnyardgrass plant response rating,"barnyardgrass [2]; Preemergence, 31 g ai/ha",90
same,"Plant response rating, Barnyardgrass",barnyardgrass [2]; [8],95
same,"Plant response rating, Barnyardgrass",barnyardgrass [2]; [9],95
same,"Plant response rating (scale of 0 to 100; 0 is no effect, 100 is complete control), Barnyardgrass","barnyardgrass [2]; Preemergence, 250 g ai/ha",95
same,"Plant response rating, Pigweed",pigweed; [10],20
same,"Plant response rating, Pigweed",pigweed; [11],70
same,Pigweed plant response rating,pigweed; [12],10
same,"Plant response rating, Pigweed","pigweed; preemergence, 500 g ai/ha, 0 to 100 scale",70
same,"Plant response rating, Ryegrass, Italian","ryegrass, Italian; [3]",0
same,"Plant response rating, Ryegrass, Italian","ryegrass, Italian; [4]",0
same,"Plant response rating, Ryegrass, Italian","ryegrass, Italian; [5]",0
same,"Plant response rating, Ryegrass, Italian","ryegrass, Italian; [6]",0
same,"Ryegrass, Italian plant response rating","ryegrass, Italian; [7]",30
same,"Plant response rating, Ryegrass, Italian","ryegrass, Italian; [8]",15
same,"Plant response rating, Ryegrass, Italian","ryegrass, Italian; [9]",30
same,"Plant response rating (scale of 0 to 100), Ryegrass, Italian","ryegrass, Italian; Preemergence, 250 g ai/ha",50
same,"Plant response rating, Oat, Wild","oat, wild; 31 g ai/ha, scale 0 (no effect) to 100 (complete control)",0
same,"Plant response rating, Oat, Wild","oat, wild; 62 g ai/ha, scale 0 to 100 (0 no effect, 100 complete control)",0
same,"Plant response rating, Oat, Wild","oat, wild; [13]",0
same,"Plant response rating, Oat, Wild","oat, wild; [14]",0
same,"Plant response rating, Nutsedge, Yellow","nutsedge, yellow; [3]",0
same,"Plant response rating, Nutsedge, Yellow","nutsedge, yellow; [4]",0
same,"Plant response rating, Nutsedge, Yellow","nutsedge, yellow; [5]",0
same,"Plant response rating, Nutsedge, Yellow","nutsedge, yellow; [6]",5
same,"Nutsedge, Yellow plant response rating","nutsedge, yellow; [7]",0
same,"Plant response rating, Nutsedge, Yellow","nutsedge, yellow; [8]",0
same,"Plant response rating, Nutsedge, Yellow","nutsedge, yellow; [9]",0
same,"Plant response rating (scale of 0 to 100), Nutsedge, Yellow","nutsedge, yellow; Preemergence, 250 g ai/ha",0
same,"Plant response rating, Soybean",soybean; [3],0
same,"Plant response rating, Soybean",soybean; [4],0
same,"Plant response rating, Soybean",soybean; [5],5
same,"Plant response rating, Soybean",soybean; [6],5
same,Soybean plant response rating,"soybean; Preemergence, 31 g ai/ha",0
same,"Plant response rating, Soybean",soybean; [8],0
same,"Plant response rating, Soybean",soybean; [9],0
same,"Plant response rating (scale of 0 to 100), Soybean","soybean; Preemergence, 250 g ai/ha",10
same,"Plant response rating, Morningglory",morningglory; [3],15
same,"Plant response rating, Morningglory",morningglory; [4],15
same,"Plant response rating, Morningglory",morningglory; [5],25
same,"Plant response rating, Morningglory",morningglory; [6],55
same,Morningglory plant response rating,morningglory; [7],0
same,"Plant response rating, Morningglory",morningglory; [8],0
same,"Plant response rating, Morningglory",morningglory; [9],30
same,"Plant response rating (scale of 0 to 100), Morningglory","morningglory; Preemergence, 250 g ai/ha",25
"O=C1NC[C@H](c2cccc(C(F)(F)F)c2)[C@H]1C(=O)Nc1ccccc1F [Compound 204, (3R,4S)—N-(2-fluorophenyl)-2-oxo-4-[3-(trifluoromethyl)phenyl]-3-pyrrolidinecarboxamide]","Plant response rating, Waterhemp",waterhemp; [15],0
same,"Plant response rating, Waterhemp",waterhemp; [16],0
same,"Plant response rating, Waterhemp",waterhemp; [5],0
same,"Plant response rating, Waterhemp",waterhemp; [6],5
same,Waterhemp plant response rating,waterhemp; [7],100
same,Waterhemp plant response rating,waterhemp; [17],75
same,"Plant response rating, Waterhemp",waterhemp; [9],80
same,"Plant response rating (scale of 0 to 100), Waterhemp","waterhemp; Preemergence, 250 g ai/ha",90
same,pest or weed control at 125 g/ha,"barnyardgrass [1]; Echinochloa crus-galli, post-emergence, 240 h, Postemergence, 125 g ai/ha, 0 to 100 scale, 0 is no effect, 100 is complete control, read-out: Plant response rating, Barnyardgrass",90%
same,pest or weed control at 125 g/ha,"barnyardgrass [1]; Echinochloa crus-galli, pre-emergence, 240 h, 125 g ai/ha, visual rating, 0 to 100 scale, 0 no effect, 100 complete control, approximately 10 days, read-out: Plant response rating, Barnyardgrass",90%
same,pest or weed control at 500 g/ha,"barnyardgrass [1]; Echinochloa crus-galli, pre-emergence, 240 h, preemergence, 500 g ai/ha, 0 to 100 scale, 0 is no effect and 100 is complete control, read-out: Plant response rating, Barnyardgrass",90%
same,"Barnyardgrass plant response rating (0 to 100 scale, 0 is no effect, 100 is complete control)","barnyardgrass [1]; Postemergence, 500 g ai/ha",90
same,"Plant response rating, Barnyardgrass",barnyardgrass [2]; [15],5
same,"Plant response rating, Barnyardgrass",barnyardgrass [2]; [16],55
same,"Plant response rating, Barnyardgrass",barnyardgrass [2]; [5],80
same,"Plant response rating, Barnyardgrass",barnyardgrass [2]; [6],90
same,Barnyardgrass plant response rating,"barnyardgrass [2]; Preemergence, 31 g ai/ha",80
same,"Plant response rating, Barnyardgrass",barnyardgrass [2]; [8],90
same,"Plant response rating, Barnyardgrass",barnyardgrass [2]; [9],95
same,"Plant response rating (scale of 0 to 100; 0 is no effect, 100 is complete control), Barnyardgrass","barnyardgrass [2]; Preemergence, 250 g ai/ha",95
same,pest or weed control at 125 g/ha,"pigweed; Amaranthus retroflexus, post-emergence, 240 h, Postemergence, 125 g ai/ha, 0 to 100 scale, 0 is no effect, 100 is complete control, read-out: Plant response rating, Pigweed",0%
same,pest or weed control at 125 g/ha,"pigweed; Amaranthus retroflexus, pre-emergence, 240 h, 125 g ai/ha, visual rating, 0 to 100 scale, 0 no effect, 100 complete control, approximately 10 days, read-out: Plant response rating, Pigweed",0%
same,pest or weed control at 500 g/ha,"pigweed; Amaranthus retroflexus, pre-emergence, 240 h, preemergence, 500 g ai/ha, 0 to 100 scale, 0 is no effect and 100 is complete control, read-out: Plant response rating, Pigweed",50%
same,"Pigweed plant response rating (0 to 100 scale, 0 is no effect, 100 is complete control)","pigweed; Postemergence, 500 g ai/ha",20
same,"Plant response rating, Ryegrass, Italian","ryegrass, Italian; [15]",0
same,"Plant response rating, Ryegrass, Italian","ryegrass, Italian; [16]",0
same,"Plant response rating, Ryegrass, Italian","ryegrass, Italian; [5]",0
same,"Plant response rating, Ryegrass, Italian","ryegrass, Italian; [6]",15
same,"Ryegrass, Italian plant response rating","ryegrass, Italian; [7]",0
same,"Ryegrass, Italian plant response rating","ryegrass, Italian; [17]",0
same,"Plant response rating, Ryegrass, Italian","ryegrass, Italian; [9]",50
same,"Plant response rating (scale of 0 to 100), Ryegrass, Italian","ryegrass, Italian; Preemergence, 250 g ai/ha",30
same,"Plant response rating, Oat, Wild","oat, wild; 31 g ai/ha, scale 0 to 100 (0 no effect, 100 complete control)",0
same,"Plant response rating, Oat, Wild","oat, wild; 62 g ai/ha, scale 0 (no effect) to 100 (complete control)",0
same,"Plant response rating, Oat, Wild","oat, wild; [13]",0
same,"Plant response rating, Oat, Wild","oat, wild; [14]",5
same,"Plant response rating, Nutsedge, Yellow","nutsedge, yellow; [15]",0
same,"Plant response rating, Nutsedge, Yellow","nutsedge, yellow; [16]",0
same,"Plant response rating, Nutsedge, Yellow","nutsedge, yellow; [5]",0
same,"Plant response rating, Nutsedge, Yellow","nutsedge, yellow; [6]",0
same,"Nutsedge, Yellow plant response rating","nutsedge, yellow; [7]",0
same,"Nutsedge, Yellow plant response rating","nutsedge, yellow; [17]",0
same,"Plant response rating, Nutsedge, Yellow","nutsedge, yellow; [9]",0
same,"Plant response rating (scale of 0 to 100), Nutsedge, Yellow","nutsedge, yellow; Preemergence, 250 g ai/ha",0
same,"Plant response rating, Soybean",soybean; [15],0
same,"Plant response rating, Soybean",soybean; [16],0
same,"Plant response rating, Soybean",soybean; [5],0
same,"Plant response rating, Soybean",soybean; [6],5
same,Soybean plant response rating,"soybean; Preemergence, 31 g ai/ha",5
same,"Plant response rating, Soybean",soybean; [9],5
same,"Plant response rating (scale of 0 to 100), Soybean","soybean; Preemergence, 250 g ai/ha",10
same,"Plant response rating, Morningglory",morningglory; [15],5
same,"Plant response rating, Morningglory",morningglory; [16],5
same,"Plant response rating, Morningglory",morningglory; [5],15
same,"Plant response rating, Morningglory",morningglory; [6],35
same,Morningglory plant response rating,morningglory; [7],0
same,Morningglory plant response rating,morningglory; [17],0
same,"Plant response rating, Morningglory",morningglory; [9],20
same,"Plant response rating (scale of 0 to 100), Morningglory","morningglory; Preemergence, 250 g ai/ha",40
